US20230242616A1, “CHEMOKINE-SELECTIVE CXCR4 ECTODOMAIN-DERIVED (POLY)PEPTIDE” (Ludwig-Maximilians-Universität München, priority 2020, published 2023)
pIC50, pKd: −log10 of the molar value. Entries after “also recorded” stand apart in the source; their conditions may differ. Like-named read-outs stand apart in the source and are kept apart here. Where a SMILES comes first, the peptide text is derived from it. [ ]: non-standard residue; d: D form. 12Ado = NCCCCCCCCCCCC(=O)O; Aoc = NCCCCCCCC(=O)O; Ahx = NCCCCCC(=O)O; AEA = NCCOCC(=O)O

Tests used:
CXCL12 = molecular target: T1, CXCL12 (Homo sapiens, UniProt P48061); assay: Fluorescence spectroscopic titration, binding to CXCL12
T1 construct: purchased Peprotech (or a gift of Dr. von Hundelshausen, LMU Munich)
T1 sequence (P48061 22-93): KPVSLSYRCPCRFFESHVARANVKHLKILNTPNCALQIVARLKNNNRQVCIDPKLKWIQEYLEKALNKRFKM
Experimental: (§1) Fluorescence spectroscopy. Fluorescence spectroscopic titrations were performed as described^28, 32. Fluorescence spectra were recorded using a JASCO FP-6500 fluorescence spectrophotometer. […] Apparent KD values (app. KD) were calculated assuming a 1/1 binding model^32.

MIF = molecular target: T2, MIF (Homo sapiens, UniProt P14174); assay: Fluorescence spectroscopic titration, binding to MIF
T2 construct: made in house
T2 sequence (P14174 2-115): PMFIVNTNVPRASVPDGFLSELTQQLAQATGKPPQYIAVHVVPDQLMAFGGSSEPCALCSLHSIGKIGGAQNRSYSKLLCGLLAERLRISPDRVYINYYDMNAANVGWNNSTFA
Experimental: as §1

[1] = test system: primary human monocyte-derived macrophages; assay: Dil-LDL uptake / foam cell formation, MIF-mediated; format: cell-based
Experimental: Dil-LDL uptake/foam cell formation. […] After washing with imaging solution (MEM without phenol red containing 30 mM HEPES, 0.5 g/L NaHCO3, pH 7.4, and 0.2% BSA), cells were exposed to 50 μg/mL 1,1′-dioctadecyl-3,3,3′3′-tetra-methylindocarbocyanine-labeled LDL (Dil-LDL) for 30 min at 4° C. followed by incubation at 37° C. for 20 min. Cells were washed with ice-cold imaging solution (pH 3.5), fixed, and counter-stained with Hoechst 33258.

[2] = Solubility / biophysical properties of next generation mimics
human monocytes = assay: 3D migration of monocytes elicited by MIF (time-lapse microscopy); format: cell-based
From the text: Isolation of human peripheral blood-derived monocytes. Human peripheral blood-derived monocytes were isolated as described^14. Briefly, blood was collected from healthy donors or buffy coat obtained from the blood bank of Munich University Hospital, mixed 1:1 with PBS, and PBMCs isolated by Ficoll-Paque Plus gradient (GE Healthcare). Monocytes were purified by negative depletion using the Monocyte Isolation Kit II (Miltenyi). Monocyte purity was verified by flow cytometry using an anti-CD14 antibody (Miltenyl) and was 95-98%. […] The isolation of PBMCs from donor blood was approved by the local ethics committee of LMU Munich. 3D migration of human peripheral blood-derived monocytes by time-lapse microscopy. The 3D-migration behavior of human monocytes was assessed by time-lapse microscopy and individual cell tracking using the 3D chemotaxis μ-Slide system from Ibidi GmbH (Munich, Germany), adapting the established Ibidi dendritic cell protocol for human monocytes. […] Cell motility was monitored performing time-lapse imaging every 1 min at 37° C. for 2 h using a Leica inverted DMi8-Life Cell Imaging System equipped with a DMC2900 Digital Microscope Camera with CMOS sensor and live cell-imaging software (Leica Microsystems, Wetzlar, Germany). Images were imported as stacks to ImageJ software and analyzed with the manual tracking and chemotaxis/migration tools (Ibidi GmbH).

[3] = test system: human monocyte-derived macrophages; details: read-out: IC50 of MIF-triggered Dil-oxLDL uptake; lower threshold of effect size roughly 50%
[4] = Estimated solubility index by CD spectroscopy; format: physicochemical
Experimental: Circular dichroism (CD) spectroscopy. […] Far-UV CD measurements were carried out between 195 and 250 nm. The response time was set at 1 s, intervals at 0.1 nm, and bandwidth at 1 nm. All spectra were measured at RT and represent an average of three recorded spectra. Scans were recorded for the ectodomain mimic peptides at a concentration of 1-20 μM in 10 mM sodium phosphate buffer, pH 7.4, containing 1% HFIP, following dilution of freshly made peptide stock solution in HFIP (4° C.) into the buffer-containing cuvette. […] The background spectrum of buffer/1% HFIP alone was subtracted from the spectra of the peptides.

[5] = test system: primary mouse spleen B lymphocytes; assay: Transwell chemotaxis of B cells elicited by MIF; format: cell-based; details: 16 nM MIF
Experimental: Chemotaxis analysis of murine B cells. A Transwell-based assay was used as described previously^34. Briefly, splenic B cells were isolated by negative depletion using a Pan B Cell Isolation Kit (Miltenyi Biotec. Bergisch Gladbach, Germany). Purity of the cells was between 95 and 99%. […] Chemotaxis was followed for 4 h at 37° C. in a humidified atmosphere of 5% CO2. Migrated cells were counted by flow cytometry using CountBright™ Absolute Counting Beads (Molecular Probes-Invitrogen).

[6] = read-out: Alexa-488-MIF/ngm app. Kd (±SD), aqueous 1 × b, pH 7.4, 1% HFIP
[7] = Alexa-488-MIF/ngm app. Kd (±SD), aqueous 1 × b, pH 7.4, 1% HFIP
[8] = Fluos-ngm/MIF app. Kd (±SD), aqueous 1 × b, pH 7.4, 1% HFIP

Molecule	binding to CXCL12 (in words) (CXCL12)	pKd (MIF; [6])	Atherogenic inhibitory activity (Dil-LDL uptake) [1]	solubility properties (in words) [2]	Estimated solubility index by CD spectroscopy [4]	other results
CC(C)C[C@H](NC(=O)[C@H](CC(=O)O)NC(=O)[C@H](CC(N)=O)NC(=O)[C@@H]1CCCN1C(=O)[C@H](Cc1ccc(O)cc1)NC(=O)[C@H](Cc1ccccc1)NC(=O)[C@H](CCCNC(=N)N)NC(=O)[C@H](CC(=O)O)NC(=O)CCCCCCCCCCCNC(=O)CCCCCNC(=O)[C@H](CCCCN)NC(=O)[C@H](CS)NC(=O)[C@H](CC(C)C)NC(=O)[C@H](Cc1ccccc1)NC(=O)[C@H](CC(N)=O)NC(=O)CNC(=O)[C@H](Cc1ccccc1)NC(=O)[C@H](Cc1ccc(O)cc1)NC(=O)[C@@H](N)Cc1c[nH]c2ccccc12)C(=O)N[C@@H](Cc1c[nH]c2ccccc12)C(N)=O [msR4M-L3] (H-WYFGNFLCK[Ahx][12Ado]DRFYPNDLW-NH2)	essentially no binding affinity for CXCL12	7.93	80% of % of full-length msR4M-L1	less favorable solubility properties		pKd (MIF; read-out: Binding affinity (fluorescence spectroscopic titration) Kd, Table 7, reconnected short mimics): 7.85; pKd (MIF; read-out: Fluos-ngm/MIF app. Kd (±SD), aqueous 1 × b, pH 7.4, 1% HFIP): 7.35
CC(C)C[C@H](NC(=O)[C@H](CC(=O)O)NC(=O)[C@H](CC(N)=O)NC(=O)[C@@H]1CCCN1C(=O)[C@H](Cc1ccc(O)cc1)NC(=O)[C@H](Cc1ccccc1)NC(=O)[C@H](CCCNC(=N)N)NC(=O)[C@H](CC(=O)O)NC(=O)COCCNC(=O)COCCNC(=O)[C@H](CCCCN)NC(=O)[C@H](CS)NC(=O)[C@H](CC(C)C)NC(=O)[C@H](Cc1ccccc1)NC(=O)[C@H](CC(N)=O)NC(=O)CNC(=O)[C@H](Cc1ccccc1)NC(=O)[C@H](Cc1ccc(O)cc1)NC(=O)[C@@H](N)Cc1c[nH]c2ccccc12)C(=O)N[C@@H](Cc1c[nH]c2ccccc12)C(N)=O [msR4M-L5] (H-WYFGNFLCK[AEA][AEA]DRFYPNDLW-NH2)	essentially no binding propensity for CXCL12		30% of % of full-length msR4M-L1	favorable biophysical properties such as solubility	>2× compared to × compared to msR4M-L1	effect on MIF-triggered 3D monocyte migration (human monocytes): inhibit the MIF-mediated monocytes migration; pKd (MIF; [7]): 7.38; pKd (MIF; Binding affinity (fluorescence spectroscopic titration) Kd, Table 8, mimics with enhanced solubility): 7.40 to 7.52; pKd (MIF; [8]): 7.84; pIC50 [3]: 7.16
CC[C@H](C)[C@H](NC(=O)[C@H](Cc1ccc(O)cc1)NC(=O)[C@H](CCCNC(=N)N)NC(=O)[C@H](CC(=O)O)NC(=O)CCCCCCCCCCCNC(=O)COCCOCCNC(=O)[C@H](CCCCN)NC(=O)[C@H](CS)NC(=O)[C@H](CC(C)C)NC(=O)[C@H](Cc1ccccc1)NC(=O)[C@H](CC(N)=O)NC(=O)CNC(=O)[C@H](Cc1ccccc1)NC(=O)[C@H](Cc1ccc(O)cc1)NC(=O)[C@H](Cc1c[nH]c2ccccc12)NC(=O)[C@H](CC(N)=O)NC(=O)[C@H](C)NC(=O)[C@@H](NC(=O)[C@H](C)NC(=O)[C@@H](N)CC(=O)O)C(C)C)C(=O)N[C@@H](CS)C(=O)N[C@@H](CC(=O)O)C(=O)N[C@@H](CCCNC(=N)N)C(=O)N[C@@H](Cc1ccccc1)C(=O)N[C@@H](Cc1ccc(O)cc1)C(=O)N1CCC[C@H]1C(=O)N[C@@H](CC(N)=O)C(=O)N[C@@H](CC(=O)O)C(=O)N[C@@H](CC(C)C)C(=O)N[C@@H](Cc1c[nH]c2ccccc12)C(=O)N[C@H](C(N)=O)C(C)C [msR4M-L2]						inhibition of MIF-mediated B-cell chemotaxis [5]: inhibits MIF-triggered B-lymphocyte chemotaxis; also recorded: fully blocked
H-WYFGNFLCKRRRDRFYPNDLW-NH2 [msR4M-LR3]	good binding affinity for CXCL12			very good solubility properties	>2× compared to × compared to msR4M-L1	
CC(C)C[C@H](NC(=O)[C@H](CC(=O)O)NC(=O)[C@H](CC(N)=O)NC(=O)[C@@H]1CCCN1C(=O)[C@H](Cc1ccc(O)cc1)NC(=O)[C@H](Cc1ccccc1)NC(=O)[C@H](CCCNC(=N)N)NC(=O)[C@H](CC(=O)O)NC(=O)CNC(=O)CNC(=O)CNC(=O)[C@H](CCCCN)NC(=O)[C@H](CS)NC(=O)[C@H](CC(C)C)NC(=O)[C@H](Cc1ccccc1)NC(=O)[C@H](CC(N)=O)NC(=O)CNC(=O)[C@H](Cc1ccccc1)NC(=O)[C@H](Cc1ccc(O)cc1)NC(=O)[C@@H](N)Cc1c[nH]c2ccccc12)C(=O)N[C@@H](Cc1c[nH]c2ccccc12)C(N)=O [msR4M-LG3]		< 5.30				
CC(C)C[C@H](NC(=O)[C@H](CC(=O)O)NC(=O)[C@H](CC(N)=O)NC(=O)[C@@H]1CCCN1C(=O)[C@H](Cc1ccc(O)cc1)NC(=O)[C@H](Cc1ccccc1)NC(=O)[C@H](CCCNC(=N)N)NC(=O)[C@H](CC(=O)O)NC(=O)CCCCCCCNC(=O)[C@H](CCCCN)NC(=O)[C@H](CS)NC(=O)[C@H](CC(C)C)NC(=O)[C@H](Cc1ccccc1)NC(=O)[C@H](CC(N)=O)NC(=O)CNC(=O)[C@H](Cc1ccccc1)NC(=O)[C@H](Cc1ccc(O)cc1)NC(=O)[C@@H](N)Cc1c[nH]c2ccccc12)C(=O)N[C@@H](Cc1c[nH]c2ccccc12)C(N)=O [msR4M-L4] (H-WYFGNFLCK[Aoc]DRFYPNDLW-NH2)	essentially no binding affinity for CXCL12		80% of % of full-length msR4M-L1	less favorable solubility properties		pKd (MIF; [7]): 7.36; pKd (MIF; [8]): 7.92
H-WYFGNFLCKKKKDRFYPNDLW-NH2 [msR4M-LK3]	good binding affinity for CXCL12			very good solubility properties		
H-WYFGNFLCKDDDDRFYPNDLW-NH2 [msR4M-LD3]	essentially no binding propensity for CXCL12	6.61		performing most superior	>2× compared to × compared to msR4M-L1	effect on MIF-triggered 3D monocyte migration (human monocytes): inhibit the MIF-mediated monocytes migration; pIC50 (human monocytes; 3D migration, one experiment, read-out: IC50 of MIF-mediated monocyte migration): 7.74; pIC50 [3]: 8.85
